Measurements published in article PMC2222994 (The Journal of General Physiology, 1999).

molecular target: T1, CNG channel (bovine retinal rod cGMP-gated channel alpha subunit) (Bos taurus, UniProt Q00194); experiment: outside-out patch clamp, macroscopic current block; format: cell-based
T1 sequence (Q00194 1-690): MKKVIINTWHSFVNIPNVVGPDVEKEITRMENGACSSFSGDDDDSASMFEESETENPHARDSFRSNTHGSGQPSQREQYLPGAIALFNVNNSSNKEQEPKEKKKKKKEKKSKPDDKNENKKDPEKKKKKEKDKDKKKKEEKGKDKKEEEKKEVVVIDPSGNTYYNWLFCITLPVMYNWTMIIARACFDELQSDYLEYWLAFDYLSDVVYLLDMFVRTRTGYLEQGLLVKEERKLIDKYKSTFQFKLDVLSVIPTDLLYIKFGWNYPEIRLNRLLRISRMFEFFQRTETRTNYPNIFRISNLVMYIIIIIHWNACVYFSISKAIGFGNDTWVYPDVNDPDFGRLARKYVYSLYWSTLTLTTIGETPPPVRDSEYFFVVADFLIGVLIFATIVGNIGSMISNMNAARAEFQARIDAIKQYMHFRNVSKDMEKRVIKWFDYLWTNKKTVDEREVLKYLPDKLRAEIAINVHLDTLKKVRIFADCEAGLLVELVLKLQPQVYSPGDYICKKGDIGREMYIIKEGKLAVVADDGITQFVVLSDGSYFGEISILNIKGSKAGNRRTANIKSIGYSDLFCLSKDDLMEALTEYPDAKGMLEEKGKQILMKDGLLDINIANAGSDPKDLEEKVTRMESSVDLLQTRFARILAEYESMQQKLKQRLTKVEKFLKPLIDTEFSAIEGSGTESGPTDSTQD

IC50 [µM]	Compound
50	NCCCCNCCCN [spermidine]
1400	NCCCCN [putrescine]
3.1	NCCCNCCCCNCCCN [spermine]
